Experimental data: ChEMBL document CHEMBL3885881, “DrugMatrix”

Organism: Rattus norvegicus
Assay: DrugMatrix - Regimen: Daily Repeat
Type: toxicity, organism-based, Sprague-Dawley
Parameters: regimen Daily Repeat, gender Male, age 6-8 weeks
Conditions: in vivo, po, route oral GAVAGE, vehicle .5 % CMC; for BASOPHIL / EOSINOPHIL / ERYTHROCYTE COUNT / HEMATOCRIT / HEMOGLOBIN / LEUKOCYTE COUNT / LYMPHOCYTE / MEAN CORPUSCULAR HEMOGLOBIN / MEAN CORPUSCULAR HEMOGLOBIN CONCENTRATION / MEAN CORPUSCULAR VOLUME / MONOCYTE / NEUTROPHIL / PLATELET COUNT: tissue Blood; for ALANINE AMINOTRANSFERASE / ALBUMIN / ALKALINE PHOSPHATASE / ASPARTATE AMINOTRANSFERASE / BLOOD UREA NITROGEN / CHLORIDE / CHOLESTEROL / CREATINE PHOSPHOKINASE / CREATININE / GLUCOSE / PHOSPHORUS / POTASSIUM / SODIUM / TOTAL PROTEIN: tissue Plasma
[1] = 0 mg/kg, 72 h, dose level Control, time 3 day
[2] = 0 mg/kg, 120 h, dose level Control, time 5 day
[3] = 50 mg/kg, 72 h, dose level Low, time 3 day
[4] = 50 mg/kg, 120 h, dose level Low, time 5 day
[5] = 2000 mg/kg, 72 h, dose level High, time 3 day
[6] = 2000 mg/kg, 120 h, dose level High, time 5 day

NC1CCN(c2nc3c(cc2F)c(=O)c(C(=O)O)cn3-c2ccc(F)cc2F)C1 (configuration not stated) [TOSUFLOXACIN]
BASOPHIL [1]: 0%
EOSINOPHIL [1]: 0.4%
ERYTHROCYTE COUNT [1]: 6.43 x10E6/uL
HEMATOCRIT [1]: 37.36%
HEMOGLOBIN [1]: 13.98 G/DL
LEUKOCYTE COUNT [1]: 13 x10E3/uL
LYMPHOCYTE [1]: 81.4%
MEAN CORPUSCULAR HEMOGLOBIN [1]: 21.9 pg
MEAN CORPUSCULAR HEMOGLOBIN CONCENTRATION [1]: 37.4 G/DL
MEAN CORPUSCULAR VOLUME [1]: 58.52 fL
MONOCYTE [1]: 0.4%
NEUTROPHIL [1]: 18%
PLATELET COUNT [1]: 1386 x10E3/uL
ALANINE AMINOTRANSFERASE [1]: 39.33 u/L
ALBUMIN [1]: 3.57 G/DL
ALKALINE PHOSPHATASE [1]: 283.83 u/L
ASPARTATE AMINOTRANSFERASE [1]: 69.5 u/L
BLOOD UREA NITROGEN [1]: 14.83 mg/dL
CHLORIDE [1]: 107.33 MEQ/L
CHOLESTEROL [1]: 75.17 mg/dL
CREATINE PHOSPHOKINASE [1]: 107.67 u/L
CREATININE [1]: 0.48 mg/dL
GLUCOSE [1]: 172.5 mg/dL
PHOSPHORUS [1]: 10.48 mg/dL
POTASSIUM [1]: 6.9 MEQ/L
SODIUM [1]: 152.33 MEQ/L
TOTAL PROTEIN [1]: 5.9 G/DL
BASOPHIL [2]: 0%
EOSINOPHIL [2]: 0.4%
ERYTHROCYTE COUNT [2]: 6.96 x10E6/uL
HEMATOCRIT [2]: 41.12%
HEMOGLOBIN [2]: 15.24 G/DL
LEUKOCYTE COUNT [2]: 11.06 x10E3/uL
LYMPHOCYTE [2]: 88.6%
MEAN CORPUSCULAR HEMOGLOBIN [2]: 21.96 pg
MEAN CORPUSCULAR HEMOGLOBIN CONCENTRATION [2]: 37.1 G/DL
MEAN CORPUSCULAR VOLUME [2]: 59.12 fL
MONOCYTE [2]: 0.2%
NEUTROPHIL [2]: 10.8%
PLATELET COUNT [2]: 1155.8 x10E3/uL
ALANINE AMINOTRANSFERASE [2]: 36.33 u/L
ALBUMIN [2]: 3.72 G/DL
ALKALINE PHOSPHATASE [2]: 340.33 u/L
ASPARTATE AMINOTRANSFERASE [2]: 68.33 u/L
BLOOD UREA NITROGEN [2]: 15 mg/dL
CHLORIDE [2]: 108.17 MEQ/L
CHOLESTEROL [2]: 74.67 mg/dL
CREATINE PHOSPHOKINASE [2]: 110.67 u/L
CREATININE [2]: 0.47 mg/dL
GLUCOSE [2]: 171.33 mg/dL
PHOSPHORUS [2]: 10.05 mg/dL
POTASSIUM [2]: 6.7 MEQ/L
SODIUM [2]: 155.5 MEQ/L
TOTAL PROTEIN [2]: 6.33 G/DL
BASOPHIL [3]: 0%
EOSINOPHIL [3]: 0%
ERYTHROCYTE COUNT [3]: 6.96 x10E6/uL
HEMATOCRIT [3]: 39.2%
HEMOGLOBIN [3]: 14.2 G/DL
LEUKOCYTE COUNT [3]: 12.93 x10E3/uL
LYMPHOCYTE [3]: 90%
MEAN CORPUSCULAR HEMOGLOBIN [3]: 20.4 pg
MEAN CORPUSCULAR HEMOGLOBIN CONCENTRATION [3]: 36.27 G/DL
MEAN CORPUSCULAR VOLUME [3]: 56.3 fL
MONOCYTE [3]: 0%
NEUTROPHIL [3]: 10%
PLATELET COUNT [3]: 1074.33 x10E3/uL
ALANINE AMINOTRANSFERASE [3]: 36.67 u/L
ALBUMIN [3]: 3.4 G/DL
ALKALINE PHOSPHATASE [3]: 240 u/L
ASPARTATE AMINOTRANSFERASE [3]: 66.33 u/L
BLOOD UREA NITROGEN [3]: 13 mg/dL
CHLORIDE [3]: 106.33 MEQ/L
CHOLESTEROL [3]: 63 mg/dL
CREATINE PHOSPHOKINASE [3]: 121.33 u/L
CREATININE [3]: 0.53 mg/dL
GLUCOSE [3]: 176.67 mg/dL
PHOSPHORUS [3]: 10.7 mg/dL
POTASSIUM [3]: 6.8 MEQ/L
SODIUM [3]: 151.33 MEQ/L
TOTAL PROTEIN [3]: 5.6 G/DL
BASOPHIL [4]: 0%
EOSINOPHIL [4]: 0%
ERYTHROCYTE COUNT [4]: 6.08 x10E6/uL
HEMATOCRIT [4]: 34.23%
HEMOGLOBIN [4]: 12.7 G/DL
LEUKOCYTE COUNT [4]: 19.4 x10E3/uL
LYMPHOCYTE [4]: 93.33%
MEAN CORPUSCULAR HEMOGLOBIN [4]: 21 pg
MEAN CORPUSCULAR HEMOGLOBIN CONCENTRATION [4]: 37.13 G/DL
MEAN CORPUSCULAR VOLUME [4]: 56.57 fL
MONOCYTE [4]: 0%
NEUTROPHIL [4]: 6.67%
PLATELET COUNT [4]: 1222.33 x10E3/uL
ALANINE AMINOTRANSFERASE [4]: 34 u/L
ALBUMIN [4]: 3.43 G/DL
ALKALINE PHOSPHATASE [4]: 218.33 u/L
ASPARTATE AMINOTRANSFERASE [4]: 56.33 u/L
BLOOD UREA NITROGEN [4]: 11 mg/dL
CHLORIDE [4]: 108 MEQ/L
CHOLESTEROL [4]: 63.33 mg/dL
CREATINE PHOSPHOKINASE [4]: 106.33 u/L
CREATININE [4]: 0.5 mg/dL
GLUCOSE [4]: 169.67 mg/dL
PHOSPHORUS [4]: 10.13 mg/dL
POTASSIUM [4]: 6.4 MEQ/L
SODIUM [4]: 152 MEQ/L
TOTAL PROTEIN [4]: 5.67 G/DL
BASOPHIL [5]: 0%
EOSINOPHIL [5]: 0%
ERYTHROCYTE COUNT [5]: 6.75 x10E6/uL
HEMATOCRIT [5]: 40.45%
HEMOGLOBIN [5]: 14.85 G/DL
LEUKOCYTE COUNT [5]: 13.75 x10E3/uL
LYMPHOCYTE [5]: 88.5%
MEAN CORPUSCULAR HEMOGLOBIN [5]: 22.05 pg
MEAN CORPUSCULAR HEMOGLOBIN CONCENTRATION [5]: 36.65 G/DL
MEAN CORPUSCULAR VOLUME [5]: 59.95 fL
MONOCYTE [5]: 0%
NEUTROPHIL [5]: 11.5%
PLATELET COUNT [5]: 1313.5 x10E3/uL
ALANINE AMINOTRANSFERASE [5]: 30.33 u/L
ALBUMIN [5]: 3.63 G/DL
ALKALINE PHOSPHATASE [5]: 215 u/L
ASPARTATE AMINOTRANSFERASE [5]: 58.67 u/L
BLOOD UREA NITROGEN [5]: 11.33 mg/dL
CHLORIDE [5]: 106.67 MEQ/L
CHOLESTEROL [5]: 79 mg/dL
CREATINE PHOSPHOKINASE [5]: 134.33 u/L
CREATININE [5]: 0.5 mg/dL
GLUCOSE [5]: 175 mg/dL
PHOSPHORUS [5]: 11.67 mg/dL
POTASSIUM [5]: 7.4 MEQ/L
SODIUM [5]: 153.33 MEQ/L
TOTAL PROTEIN [5]: 6.17 G/DL
BASOPHIL [6]: 0%
EOSINOPHIL [6]: 0.33%
ERYTHROCYTE COUNT [6]: 6.63 x10E6/uL
HEMATOCRIT [6]: 39.83%
HEMOGLOBIN [6]: 14.4 G/DL
LEUKOCYTE COUNT [6]: 13.93 x10E3/uL
LYMPHOCYTE [6]: 93.67%
MEAN CORPUSCULAR HEMOGLOBIN [6]: 21.83 pg
MEAN CORPUSCULAR HEMOGLOBIN CONCENTRATION [6]: 36.23 G/DL
MEAN CORPUSCULAR VOLUME [6]: 60.27 fL
MONOCYTE [6]: 0%
NEUTROPHIL [6]: 6%
PLATELET COUNT [6]: 1193.67 x10E3/uL
ALANINE AMINOTRANSFERASE [6]: 45.67 u/L
ALBUMIN [6]: 3.47 G/DL
ALKALINE PHOSPHATASE [6]: 280 u/L
ASPARTATE AMINOTRANSFERASE [6]: 64.67 u/L
BLOOD UREA NITROGEN [6]: 9.67 mg/dL
CHLORIDE [6]: 108 MEQ/L
CHOLESTEROL [6]: 65.67 mg/dL
CREATINE PHOSPHOKINASE [6]: 144.33 u/L
CREATININE [6]: 0.5 mg/dL
GLUCOSE [6]: 162.33 mg/dL
PHOSPHORUS [6]: 9.47 mg/dL
POTASSIUM [6]: 6.3 MEQ/L
SODIUM [6]: 152.67 MEQ/L
TOTAL PROTEIN [6]: 5.8 G/DL
